# Tested on: P12-Ichikawa
# Test: cell viability relative to DMSO control; higher = less cytotoxic
# Details: 48 h
# In short: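 Three leukemia lines were tested: NOMO1 and SEM at 500 cells/well and P12-Ichikawa at 1000 cells/well. Each was adapted for at least four passages in each medium and seeded in 5 μl in 1536-well plates, and library compounds in DMSO were pin-dosed from 47 μM to 0.79 nM in 11 threefold steps. After 48 h at 37°C, CellTiter-Glo One luminescence was read. Viability is a percentage relative to DMSO wells on each plate, with cell-free wells as background.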
# [1] = HPLM + 10% dialyzed FBS, 0.000781 µM
# [2] = HPLM + 10% dialyzed FBS, 0.00234 µM
# [3] = HPLM + 10% dialyzed FBS, 0.00702 µM
# [4] = HPLM + 10% dialyzed FBS, 0.0211 µM
# [5] = HPLM + 10% dialyzed FBS, 0.0632 µM
# [6] = HPLM + 10% dialyzed FBS, 0.19 µM
# [7] = HPLM + 10% dialyzed FBS, 0.569 µM
# [8] = HPLM + 10% dialyzed FBS, 1.71 µM
# [9] = HPLM + 10% dialyzed FBS, 5.12 µM
# [10] = HPLM + 10% dialyzed FBS, 15.4 µM
# [11] = HPLM + 10% dialyzed FBS, 46.1 µM
# [12] = RPMI 5 mM glucose + 10% FBS, 0.000781 µM
# [13] = RPMI 5 mM glucose + 10% FBS, 0.00234 µM
# [14] = RPMI 5 mM glucose + 10% FBS, 0.00702 µM
# [15] = RPMI 5 mM glucose + 10% FBS, 0.0211 µM
# [16] = RPMI 5 mM glucose + 10% FBS, 0.0632 µM
# [17] = RPMI 5 mM glucose + 10% FBS, 0.19 µM
# [18] = RPMI 5 mM glucose + 10% FBS, 0.569 µM
# [19] = RPMI 5 mM glucose + 10% FBS, 1.71 µM
# [20] = RPMI 5 mM glucose + 10% FBS, 5.12 µM
# [21] = RPMI 5 mM glucose + 10% FBS, 15.4 µM
# [22] = RPMI 5 mM glucose + 10% FBS, 46.1 µM
# [23] = RPMI 5 mM glucose + 10% dialyzed FBS, 0.000781 µM
# [24] = RPMI 5 mM glucose + 10% dialyzed FBS, 0.00234 µM
# [25] = RPMI 5 mM glucose + 10% dialyzed FBS, 0.00702 µM
# [26] = RPMI 5 mM glucose + 10% dialyzed FBS, 0.0211 µM
# [27] = RPMI 5 mM glucose + 10% dialyzed FBS, 0.0632 µM
# [28] = RPMI 5 mM glucose + 10% dialyzed FBS, 0.19 µM
# [29] = RPMI 5 mM glucose + 10% dialyzed FBS, 0.569 µM
# [30] = RPMI 5 mM glucose + 10% dialyzed FBS, 1.71 µM
# [31] = RPMI 5 mM glucose + 10% dialyzed FBS, 5.12 µM
# [32] = RPMI 5 mM glucose + 10% dialyzed FBS, 15.4 µM
# [33] = RPMI 5 mM glucose + 10% dialyzed FBS, 46.1 µM
SMILES,cell viability [1] [%],cell viability [2] [%],cell viability [3] [%],cell viability [4] [%],cell viability [5] [%],cell viability [6] [%],cell viability [7] [%],cell viability [8] [%],cell viability [9] [%],cell viability [10] [%],cell viability [11] [%],cell viability [12] [%],cell viability [13] [%],cell viability [14] [%],cell viability [15] [%],cell viability [16] [%],cell viability [17] [%],cell viability [18] [%],cell viability [19] [%],cell viability [20] [%],cell viability [21] [%],cell viability [22] [%],cell viability [23] [%],cell viability [24] [%],cell viability [25] [%],cell viability [26] [%],cell viability [27] [%],cell viability [28] [%],cell viability [29] [%],cell viability [30] [%],cell viability [31] [%],cell viability [32] [%],cell viability [33] [%]
CCOC(=O)c1ccc(C#Cc2ccc3c(c2)C(C)(C)CCS3)nc1,98.6,108,102,105,105,118,110,110,108,107,78.7,95.2,96.1,106,109,108,106,101,106,106,110,94.5,98.8,99.9,109,110,108,107,102,113,104,96.1,102
COc1cc2ncnc(Nc3ccc(F)c(Cl)c3)c2cc1OCCCN1CCOCC1,115,114,120,115,112,113,117,111,100,95.4,4.05,122,113,109,109,112,109,114,106,104,111,93.7,111,116,116,115,113,109,111,112,106,101,86.6
CC(C)(O)CNc1nc(Nc2ccnc(C(F)(F)F)c2)nc(-c2cccc(C(F)(F)F)n2)n1,101,103,107,107,106,102,99.4,104,8.99,10.4,15.2,103,115,100,114,104,118,111,107,10.2,10.7,13.2,99.6,106,115,117,123,109,117,118,17.5,21.5,26.8
COc1cc2nc(-c3ccc(N4CCN(C)CC4)cc3)nc(NCCN3CCOCC3)c2cc1OC,111,121,109,115,109,110,81.7,57.9,50,23.2,3.38,113,120,108,113,116,111,104,67,36.7,5.75,2.84,113,108,118,103,106,106,96.3,65.8,22.5,5.42,2.71
N/C(=N\C(=O)c1nc(Cl)c(N)nc1N)NCc1ccccc1,101,106,105,103,108,105,108,108,101,98.7,70.9,84.9,96.9,83.3,92.1,99,103,106,95.1,107,96.5,58.4,82.5,94.1,94.1,88.2,94.4,101,103,106,98.2,76.1,51.4
CC(C)[C@H](CO)Nc1nc(Nc2ccc(C(=O)O)c(Cl)c2)c2ncn(C(C)C)c2n1,119,120,116,121,119,115,96.1,103,87.1,96.3,92.9,111,124,117,134,127,130,95.7,88.4,89.2,93,69.9,119,122,130,111,120,129,102,94,87.1,102,73.7
COc1cc(/C=C/C(=O)CC(=O)/C=C/c2ccc(O)c(OC)c2)ccc1O,99.1,96.9,108,104,110,105,109,106,96.4,27.8,5.27,102,104,98.4,113,113,110,105,104,99.1,61.2,4.23,98.8,102,105,110,104,98.2,104,113,102,60.3,4.18
COc1ccc(CCC(=O)Nc2nc3ccc(Cl)cc3s2)cc1OC,106,106,106,112,111,107,110,102,104,99.3,98.6,109,118,94.9,114,111,110,110,108,109,107,92.1,113,94.1,105,113,110,105,99.7,105,103,91.9,92.6
c1ccc2c(Oc3nc(Nc4ccc(N5CCOCC5)cc4)c4ncn(C5CCCCC5)c4n3)cccc2c1,116,118,126,132,126,121,126,132,134,137,130,–,–,–,–,–,–,–,–,–,–,–,–,–,–,–,–,–,–,–,–,–,–
CC(C)c1ccc2oc3nc(N)c(C(=O)O)cc3c(=O)c2c1,120,119,119,124,130,132,128,131,125,129,118,–,–,–,–,–,–,–,–,–,–,–,–,–,–,–,–,–,–,–,–,–,–
CN1[C@@H]2CC(O)C[C@H]1[C@@H]1O[C@@H]12 (some centres undefined),122,121,124,105,119,115,119,120,114,119,6.79,122,113,123,119,135,121,119,125,107,104,18.3,118,119,127,112,125,120,120,113,106,120,4.64
NC\1=N\C(=O)N(\C=N1)[C@H]2C[C@H](O)[C@@H](CO)O2,101,103,106,108,115,108,101,74.1,42,34.9,32.3,105,110,112,118,106,103,97.2,70,37.6,26.5,27.5,107,109,103,106,105,107,102,72.5,37.2,30.3,31.4
CC(Oc1ccc(O)cc1)(P(=O)(O)O)P(=O)(O)O,102,101,94.9,100,101,99.2,90.3,94.9,85.3,67.8,46.7,92.5,97.8,95,93.7,100,98.2,82.2,87.2,81.5,42.8,33.6,97.1,97.5,88.6,98.4,107,101,90.7,93.1,87.6,47.2,34.6
C[C@@H]1CN(CC(=O)N2CC(C)(C)c3ncc(Cc4ccc(F)cc4)cc32)[C@@H](CN2CCOC[C@H]2C)CN1,102,113,81.8,113,118,121,111,112,115,110,91.8,102,106,69.7,118,118,132,114,128,125,116,98.2,110,119,88.8,125,126,135,128,122,121,118,90.8
CN1C(=O)COc2c(C(=O)NC3CN4CCC3CC4)cc(Cl)cc21 (centres undefined),87.1,107,104,105,109,109,99.6,96.9,94.2,107,111,95,115,110,119,132,73,66.4,86.1,95.7,95.6,121,95.8,98.4,101,97.8,101,95.4,98.9,96.9,92.6,89.2,99
Cc1cnc(Nc2ccc(OCCN3CCCC3)cc2)nc1Nc1cccc([S+](=O)([O-])NC(C)(C)C)c1,100,108,110,110,115,111,119,114,112,108,112,110,116,110,119,120,116,120,117,110,108,112,91.8,101,109,106,117,109,111,118,110,110,97.6

# — the supplement of paper PMC11451515
